# Laboratory results from US6855843B2, “Inhibitors of α4 mediated cell adhesion” (Tanabe Seiyaku Co., Ltd., priority 1998, dated 2005).
# pIC50: −log10 of the molar value.
# Biological target: T1, α4β7 (adhesion of RPMI cells to CS-1) (Homo sapiens, UniProt P13612+P26010)
# T1 construct: endogenous in cells
# T1 sequence (P13612 34-1032): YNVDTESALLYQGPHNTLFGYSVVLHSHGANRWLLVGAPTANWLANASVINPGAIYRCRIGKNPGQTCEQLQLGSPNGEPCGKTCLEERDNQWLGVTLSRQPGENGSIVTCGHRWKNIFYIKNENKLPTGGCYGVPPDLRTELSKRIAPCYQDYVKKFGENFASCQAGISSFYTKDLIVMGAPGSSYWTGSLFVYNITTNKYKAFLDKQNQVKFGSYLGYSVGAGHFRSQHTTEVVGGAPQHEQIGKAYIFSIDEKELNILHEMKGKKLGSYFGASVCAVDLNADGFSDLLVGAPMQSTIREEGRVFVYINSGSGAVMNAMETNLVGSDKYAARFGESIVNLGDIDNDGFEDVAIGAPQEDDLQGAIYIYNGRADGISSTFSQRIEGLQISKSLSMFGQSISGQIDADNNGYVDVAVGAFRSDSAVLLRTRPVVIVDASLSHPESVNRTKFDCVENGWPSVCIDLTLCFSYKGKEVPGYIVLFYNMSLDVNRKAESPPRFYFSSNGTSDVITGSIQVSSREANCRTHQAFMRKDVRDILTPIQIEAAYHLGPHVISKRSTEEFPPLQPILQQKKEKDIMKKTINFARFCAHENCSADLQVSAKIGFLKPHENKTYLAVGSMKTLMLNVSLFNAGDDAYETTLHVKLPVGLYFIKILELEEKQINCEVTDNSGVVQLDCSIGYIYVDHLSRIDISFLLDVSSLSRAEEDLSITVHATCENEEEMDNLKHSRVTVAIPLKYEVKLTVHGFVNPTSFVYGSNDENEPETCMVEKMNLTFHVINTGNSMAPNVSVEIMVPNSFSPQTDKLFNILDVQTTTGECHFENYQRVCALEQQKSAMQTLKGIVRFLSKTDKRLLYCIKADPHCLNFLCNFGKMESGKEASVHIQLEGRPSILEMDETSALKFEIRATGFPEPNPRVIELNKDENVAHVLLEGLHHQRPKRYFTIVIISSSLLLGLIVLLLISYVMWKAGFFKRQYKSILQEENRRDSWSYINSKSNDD
# T1 sequence (P26010 20-798): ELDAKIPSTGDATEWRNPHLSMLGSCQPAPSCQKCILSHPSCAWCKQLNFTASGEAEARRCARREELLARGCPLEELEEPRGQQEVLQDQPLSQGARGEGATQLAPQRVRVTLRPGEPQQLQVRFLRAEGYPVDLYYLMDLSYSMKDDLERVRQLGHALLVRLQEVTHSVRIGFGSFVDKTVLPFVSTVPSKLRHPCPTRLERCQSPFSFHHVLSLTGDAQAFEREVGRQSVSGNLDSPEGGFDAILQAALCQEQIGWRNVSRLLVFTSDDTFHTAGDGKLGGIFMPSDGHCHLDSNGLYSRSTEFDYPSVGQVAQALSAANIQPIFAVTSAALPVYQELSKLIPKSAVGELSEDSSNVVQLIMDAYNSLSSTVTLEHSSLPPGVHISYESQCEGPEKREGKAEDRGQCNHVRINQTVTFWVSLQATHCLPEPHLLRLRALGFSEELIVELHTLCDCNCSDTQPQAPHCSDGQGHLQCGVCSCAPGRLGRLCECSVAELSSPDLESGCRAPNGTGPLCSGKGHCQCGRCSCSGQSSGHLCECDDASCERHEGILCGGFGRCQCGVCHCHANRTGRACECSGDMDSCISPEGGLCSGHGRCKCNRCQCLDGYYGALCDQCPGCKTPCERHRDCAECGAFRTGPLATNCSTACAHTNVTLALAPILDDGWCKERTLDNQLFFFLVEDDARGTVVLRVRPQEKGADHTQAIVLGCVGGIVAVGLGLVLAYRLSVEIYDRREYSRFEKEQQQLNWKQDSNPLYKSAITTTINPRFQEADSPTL
# Test: RPMI-CS-1 cell adhesion assay
# Type: cell-based
# Settings: adhesion of RPMI B-cell line (expresses α4β7) to CS-1 peptide coated microwells; read-out: RPMI-CS-1 IC50 value range
row,Structure (SMILES),pIC50
1,COc1sccc1-c1ccc(C[C@H](NC(=O)c2c(Cl)cccc2Cl)C(=O)O)cc1 [Example 136],6.00 to 6.52
2,COc1cccc(OC)c1-c1ccc(C[C@H](NC(=O)c2c(Cl)cc(-c3cccnc3)cc2Cl)C(=O)O)cc1 [Example 311],> 6.52
3,COc1cc(C#N)c(-c2ccc(C[C@H](NC(=O)c3c(Cl)cccc3Cl)C(=O)O)cc2)c(OC)c1 [Example 142],> 6.52
4,"COc1cc(OCCN(C)C)cc(OC)c1-c1ccc(C[C@H](NC(=O)c2c(Cl)cccc2Cl)C(=O)O)cc1 [Example 223, N-(2,6-Dichlorobenzoyl)-4-[2,6-dimethoxy-4-[2-(N,N-dimethylamino)ethoxy]phenyl]-L-phenylalanine]",> 6.52
5,COc1cccc(OC)c1-c1ccc(C[C@H](NC(=O)c2c(Cl)cc(-c3cccs3)cc2Cl)C(=O)O)cc1 [Example 316],> 6.52
6,COc1ccccc1-c1ccc(C[C@H](NC(=O)c2ccc(CC(C)C)cc2)C(=O)O)cc1 [Example 102],< 5.30
7,"COc1ccccc1-c1ccc(C[C@H](NC(=O)c2c(Cl)cc(NS(=O)(=O)C(F)(F)F)cc2Cl)C(=O)O)cc1 [Example 182, N-[2,6-Dichloro-4-[(trifluoromethanesulfonyl)amino]benzoyl]-4-(2-methoxyphenyl)-L-phenylalanine]",> 6.52
8,O=C(N[C@@H](Cc1ccc(-c2cc3ccccc3o2)cc1)C(=O)O)c1c(Cl)cccc1Cl [Example 130],< 5.30
9,COc1cc(OCc2ccccc2)cc(OC)c1-c1ccc(C[C@H](NC(=O)c2c(Cl)cccc2Cl)C(=O)O)cc1 [Example 350],> 6.52
10,COc1cccc(OC)c1-c1ccc(C[C@H](NC(=O)c2c(Cl)cc(-c3c(C)noc3C)cc2Cl)C(=O)O)cc1 [Example 309],> 6.52
11,COc1cc(CN2CCN(C)CC2)cc(OC)c1-c1ccc(C[C@H](NC(=O)c2c(Cl)cccc2Cl)C(=O)O)cc1 [Example 248],> 6.52
12,O=C(N[C@@H](Cc1ccc(-c2cccnc2)cc1)C(=O)O)c1c(Cl)cccc1Cl [Example 129],5.30 to 6.00
13,"N#CCOc1ccc2c(c1-c1ccc(C[C@H](NC(=O)c3c(Cl)cccc3Cl)C(=O)O)cc1)OCO2 [Example 239, N-(2,6-Dichlorobenzoyl)-4-[2,3-methylenedioxy-6-(cyanomethoxy)phenyl]-L-phenylalanine]",> 6.52
14,"O=C(NCCCO)c1ccccc1-c1ccc(C[C@H](NC(=O)c2c(Cl)cccc2Cl)C(=O)O)cc1 [Example 57, N-(2,6-Dichlorobenzoyl)-4-[2-[N-(3-hydroxypropyl)carbamoyl]phenyl]-L-phenylalanine]",5.30 to 6.00
15,"COc1cc(N(C)C)cc(OC)c1-c1ccc(C[C@H](NC(=O)c2c(Cl)cccc2Cl)C(=O)O)cc1 [Example 164, N-(2,6-Dichlorobenzoyl)-4-[2,6-dimethoxy-4-(dimethylamino)phenyl]-L-phenylalanine]",> 6.52
16,COc1cc(CN2CC(C)OC(C)C2)cc(OC)c1-c1ccc(C[C@H](NC(=O)c2c(Cl)cccc2Cl)C(=O)O)cc1 (stereo partly drawn) [Example 245],> 6.52
17,"NS(=O)(=O)c1ccccc1-c1ccc(C[C@H](NC(=O)c2c(Cl)cccc2Cl)C(=O)O)cc1 [Example 17, N-(2,6-Dichlorobenzoyl)-4-(2-sulfamoylphenyl)-L-phenylalanine]",> 6.52
18,COc1cc(CN2CCN(C(C)=O)CC2)cc(OC)c1-c1ccc(C[C@H](NC(=O)c2c(Cl)cccc2Cl)C(=O)O)cc1 [Example 251],> 6.52
19,COc1cccc(OC)c1-c1ccc(C[C@H](NC(=O)c2ccc(OC(C)C)cc2Cl)C(=O)O)cc1 [Example 285],> 6.52
20,"COc1cccc(OC)c1-c1ccc(C[C@H](NC(=O)c2c(Cl)cccc2Cl)C(=O)O)cc1N1CCCC1=O [Example 300, N-(2,6-dichlorobenzoyl)-3-(2-oxo-1-pyrrolidinyl)-4-(2,6-dimethoxyphenyl)-L-phenylalaine]",6.00 to 6.52
21,COC(=O)[C@H](Cc1ccc(-c2cccnc2)cc1)NC(=O)c1c(Cl)cccc1Cl [Example 127],< 5.30
22,"COc1ccccc1-c1ccc(C[C@H](NC(=O)c2ccc(C(N)=O)cc2Cl)C(=O)O)cc1 [Example 178, N-[2-Chloro-4-carbamoylbenzoyl]-4-(2-methoxyphenyl)-L-phenylalanine]",> 6.52
23,"CC(C)(C)NS(=O)(=O)c1ccccc1-c1ccc(C[C@H](NC(=O)c2c(Cl)cccc2Cl)C(=O)O)cc1 [Example 16, N-(2,6-Dichlorobenzoyl)-4-[2-[N-(tert-butyl)sulfamoyl]phenyl]-L-phenylalanine]",> 6.52
24,COc1ccccc1-c1ccc(C[C@H](NC(=O)c2ccc(O)cc2Cl)C(=O)O)cc1 [Example 209],> 6.52
25,"CNC(=S)Nc1ccc(C(=O)N[C@@H](Cc2ccc(-c3ccccc3OC)cc2)C(=O)O)c(Cl)c1 [Example 70, N-[2-Chloro-4-(3-methylthioureido)benzoyl]-4-(2-methoxyphenyl)-L-phenylalanine]",> 6.52
26,COc1ccccc1-c1ccc(C[C@H](NC(=O)c2ccccc2Br)C(=O)O)cc1 [Example 96],6.00 to 6.52

# Continued, values first:
row,pIC50,Structure (SMILES)
1,< 5.30,CCOc1cccc(-c2ccc(C[C@H](NC(=O)c3c(Cl)cccc3Cl)C(=O)O)cc2)c1 [Example 120]
2,6.00 to 6.52,NC(=O)c1ccccc1-c1ccc(C[C@H](NC(=O)c2c(Cl)cccc2Cl)C(=O)O)cc1 [Example 60]
3,6.00 to 6.52,CCOC(=O)Nc1cc(C[C@H](NC(=O)c2c(Cl)cccc2Cl)C(=O)O)ccc1-c1ccccc1OC [Example 345]
4,> 6.52,"COc1ccccc1-c1ccc(C[C@H](NC(=O)c2ccc(C(=O)NS(C)(=O)=O)cc2Cl)C(=O)O)cc1 [Example 179, N-[2-Chloro-4-[N-(methanesulfonyl)carbamoyl]-benzoyl]-4-(2-methoxyphenyl)-L-phenylalanine]"
5,5.30 to 6.00,"COc1cc(OCc2c(Cl)cccc2Cl)cc(OC)c1-c1ccc(C[C@H](NC(=O)c2c(Cl)cccc2Cl)C(=O)O)cc1 [Example 221, N-(2,6-Dichlorobenzoyl)-4-[2,6-dimethoxy-4-[(2,6-dichlorophenyl)methoxy]phenyl]-L-phenylalanine]"
6,5.30 to 6.00,COc1ccccc1-c1ccc(C[C@H](NC(=O)c2ccc(NC(=O)c3c(Cl)cccc3Cl)cc2)C(=O)O)cc1 [Example 107]
7,> 6.52,"COc1c(F)cc2c(c1-c1ccc(C[C@H](NC(=O)c3c(Cl)cccc3Cl)C(=O)O)cc1)OCO2 [Example 154, N-(2,6-Dichlorobenzoyl)-4-(2,3-methylenedioxy-5-fluoro-6-methoxyphenyl)-L-phenylalanine]"
8,6.00 to 6.52,O=C(N[C@@H](Cc1ccc(-c2ccccc2OCc2ccncc2)cc1)C(=O)O)c1c(Cl)cccc1Cl [Example 39]
9,6.00 to 6.52,CC(=O)Nc1ccccc1-c1ccc(C[C@H](NC(=O)c2c(Cl)cccc2Cl)C(=O)O)cc1 [Example 25]
10,5.30 to 6.00,COc1ccccc1-c1ccc(C[C@H](NC(=O)c2ccc(S(N)(=O)=O)cc2)C(=O)O)cc1 [Example 210]
11,> 6.52,"CN(C)c1ccccc1-c1ccc(C[C@H](NC(=O)c2c(Cl)cccc2Cl)C(=O)O)cc1 [Example 27, N-(2,6-Dichlorobenzoyl)-4-[2-(N,N-dimethylamino)phenyl]-L-phenylalanine]"
12,> 6.52,"COc1ccc(-c2ccc(C[C@H](NC(=O)c3c(Cl)cccc3Cl)C(=O)O)cc2)c(OC)c1 [Example 9, N-(2,6-Dichlorobenzoyl)-4-(2,4-dimethoxyphenyl)-L-phenylalanine]"
13,< 5.30,COc1ccc(-c2ccc(C[C@H](NC(=O)c3ccc(C(=O)O)cc3)C(=O)O)cc2)cc1 [Example 76]
